From patent US20250171459A1, “2-METHYL-4',5'-DIHYDROSPIRO[PIPERIDINE-4,7'-THIENO[2,3-C]PYRAN] DERIVATIVES AS INHIBITORS OF APOL1 AND METHODS OF USING SAME” (Vertex Pharmaceuticals Incorporated, priority 2022, published 2025)

Molecular target: T1, APOL1 (Homo sapiens, UniProt O14791)
T1 sequence (O14791 1-398 S342G/I384M): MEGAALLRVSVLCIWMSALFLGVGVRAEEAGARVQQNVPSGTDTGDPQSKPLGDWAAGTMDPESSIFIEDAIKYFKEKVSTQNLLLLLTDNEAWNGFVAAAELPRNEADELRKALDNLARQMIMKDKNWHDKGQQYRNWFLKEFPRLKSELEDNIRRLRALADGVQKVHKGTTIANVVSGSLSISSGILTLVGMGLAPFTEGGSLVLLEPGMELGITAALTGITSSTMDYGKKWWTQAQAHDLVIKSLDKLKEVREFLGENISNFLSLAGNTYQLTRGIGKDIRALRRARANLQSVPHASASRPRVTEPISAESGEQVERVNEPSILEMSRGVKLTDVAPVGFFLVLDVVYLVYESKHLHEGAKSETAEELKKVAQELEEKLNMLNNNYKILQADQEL
Test: MultiTox-Fluor Multiplex Cytotoxicity Assay in tet-inducible APOL1 T-REx-HEK293 cells (cell rescue, ratio of dead to live cells)
Format: cell-based
Settings: tet-inducible transgenic APOL1 T-REx-HEK293 cell lines, 50 ng/mL tet, 24 hours; read-out: IP50 (i.e., IC50 for cell proliferation)
Procedure, shortened: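 T-REx-HEK293 cells with tet-inducible APOL1 were treated with compound (10 μM top, 10-point 3-fold dilution, duplicate) plus 50 ng/mL tetracycline for 24 h at 37° C, in DMEM with 2% tet-free FBS. MultiTox-Fluor protease signals gave a dead/live ratio, normalized to no tet (100% viability) and tet alone (0%).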

With `C[C@H]1C[C@@]2(CCN1C[C@H]1C[C@@H](NC(=O)C3CC(F)(F)C3)C1)OCCc1cc(CC(F)F)sc12` [Compound 550] the IC50 was less than 100 nM.
Molecule `C[C@H]1C[C@@]2(CCN1C[C@H]1C[C@@H](NC(=O)C3CC3(F)F)C1)OCCc1cc(CC(F)F)sc12` (some centres unmarked) [Compound 551] has an IC50 of less than 100 nM.
`C[C@H]1C[C@@]2(CCN1C[C@H]1C[C@@H](NS(=O)(=O)C3CC3)C1)OCCc1cc(CC(F)F)sc12` [Compound 552] was tested, and the IC50 was less than 100 nM.
For `CCS(=O)(=O)N[C@H]1C[C@@H](CN2CC[C@]3(C[C@@H]2C)OCCc2cc(CC(F)F)sc23)C1` [Compound 553], the IC50 was less than 100 nM.
`COC(=O)N[C@H]1C[C@@H](CN2CC[C@]3(C[C@@H]2C)OCCc2cc(CC(F)F)sc23)C1` [Compound 554] was tested, and the IC50 was less than 100 nM.
`Cc1cc(C(=O)N[C@H]2C[C@@H](CN3CC[C@]4(C[C@@H]3C)OCCc3cc(CC(F)F)sc34)C2)on1` [Compound 555] showed an IC50 of less than 100 nM.
Work on `C[C@H]1C[C@@]2(CCN1C[C@H]1C[C@@H](NC(=O)C3CC3)C1)OCCc1cc(CC(F)F)sc12` [Compound 556] yielded an IC50 of less than 100 nM.
In the case of `C[C@H]1C[C@@]2(CCN1C[C@H]1C[C@@H](NC(=O)C3CCC3)C1)OCCc1cc(CC(F)F)sc12` [Compound 557], the IC50 is reported as less than 100 nM.
Work on `CC(=O)N[C@H]1C[C@@H](CN2CC[C@]3(C[C@@H]2C)OCCc2cc(CC(F)F)sc23)C1` [Compound 558] yielded an IC50 of less than 100 nM.
Molecule `C[C@H]1C[C@@]2(CCN1Cc1cnn(CCS(C)(=O)=O)c1)OCCc1cc(CC(F)F)sc12` [Compound 559, (2′S, 7R)-2-(2,2-difluoroethyl)-2′-methyl-1′-[[1-(2-methylsulfonylethyl)pyrazol-4-yl]methyl]spiro[4,5-dihydrothieno[2,3-c]pyran-7,4′-piperidine]] has an IC50 of less than 100 nM.
With `C[C@H]1C[C@@]2(CCN1Cc1ncc(NC(C)(C)CO)cn1)OCCc1cc(CC(F)F)sc12` [Compound 560] the IC50 was less than 100 nM.
Molecule `C[C@H]1C[C@@]2(CCN1Cc1cnn(CC(C)(CO)CO)c1)OCCc1cc(CC(F)F)sc12` [Compound 561, 2-[[4-[[(2′S, 7R)-2-(2,2-difluoroethyl)-2′-methyl-spiro[4,5-dihydrothieno[2,3-c]pyran-7,4′-piperidine]-1′-yl]methyl]pyrazol-1-yl]methyl]-2-methyl-propane-1,3-diol] has an IC50 of less than 100 nM.
`C[C@H]1C[C@@]2(CCN1Cc1cc[nH]n1)OCCc1cc(CC(F)F)sc12` [Compound 562] showed an IC50 of less than 100 nM.
`C[C@H]1C[C@@]2(CCN1Cc1cnn(CCO)c1)OCCc1cc(CC(F)F)sc12` [Compound 563] showed an IC50 of less than 100 nM.
With `C[C@H]1C[C@@]2(CCN1Cc1ccc3c(c1)n(C)c(=O)n3C)OCCc1cc(CC(F)F)sc12` [Compound 564] the IC50 was less than 100 nM.
`C[C@H]1C[C@@]2(CCN1Cc1cnn(C)c1)OCCc1cc(CC(F)F)sc12` [Compound 565] gave an IC50 of less than 100 nM.
In the case of `C[C@H]1C[C@@]2(CCN1Cc1cn(C)nn1)OCCc1cc(CC(F)F)sc12` [Compound 566], the IC50 is reported as less than 100 nM.
Work on `C[C@H]1C[C@@]2(CCN1Cc1cncnc1)OCCc1cc(CC(F)F)sc12` [Compound 567] yielded an IC50 of less than 100 nM.
With `C[C@H]1C[C@@]2(CCN1CC1CC1)OCCc1cc(CC(F)F)sc12` [Compound 568] the IC50 was less than 100 nM.
`C[C@H]1C[C@@]2(CCN1Cc1ccnnc1)OCCc1cc(CC(F)F)sc12` [Compound 569] gave an IC50 of less than 100 nM.
With `C[C@H]1C[C@@]2(CCN1Cc1cccc(=O)[nH]1)OCCc1cc(CC(F)F)sc12` [Compound 570] the IC50 was 100 to 500 nM.
With `C[C@H]1C[C@@]2(CCN1Cc1ccnn1C)OCCc1cc(CC(F)F)sc12` [Compound 571] the IC50 was 100 to 500 nM.
`CCN1CC[C@]2(C[C@@H]1C)OCCc1cc(CC(F)F)sc12` [Compound 572] showed an IC50 of 100 to 500 nM.
With `C[C@H]1C[C@@]2(CCN1Cc1cn(C)cn1)OCCc1cc(CC(F)F)sc12` [Compound 573] the IC50 was 100 to 500 nM.
Molecule `C[C@H]1C[C@@]2(CCN1Cc1cccn(C)c1=O)OCCc1cc(CC(F)F)sc12` [Compound 574] has an IC50 of 500 to 1000 nM.
Molecule `C[C@H]1C[C@@]2(CCN1C1COC1)OCCc1cc(CC(F)F)sc12` [Compound 575] has an IC50 of 500 to 1000 nM.
For `C[C@H]1C[C@@]2(CCN1CC1CCC1)OCCc1cc(CC(F)F)sc12` [Compound 576], the IC50 was 100 to 500 nM.
With `C[C@H]1C[C@@]2(CCN1Cc1ccc[nH]c1=O)OCCc1cc(CC(F)F)sc12` [Compound 577] the IC50 was 100 to 500 nM.
Work on `C[C@H]1C[C@@]2(CCN1Cc1ccn(C)n1)OCCc1cc(CC(F)F)sc12` [Compound 578] yielded an IC50 of less than 100 nM.
Molecule `C[C@H]1C[C@@]2(CCN1Cc1ccon1)OCCc1cc(CC(F)F)sc12` [Compound 579] has an IC50 of less than 100 nM.
Work on `C[C@H]1C[C@@]2(CCN1Cc1ncco1)OCCc1cc(CC(F)F)sc12` [Compound 580] yielded an IC50 of 100 to 500 nM.
Work on `CC(C)CN1CC[C@]2(C[C@@H]1C)OCCc1cc(CC(F)F)sc12` [Compound 581] yielded an IC50 of 100 to 500 nM.
Molecule `C[C@H]1C[C@@]2(CCN1CCC(F)(F)F)OCCc1cc(CC(F)F)sc12` [Compound 582] has an IC50 of 500 to 1000 nM.
With `C[C@H]1C[C@@]2(CCN1CC1CCOC1)OCCc1cc(CC(F)F)sc12` (some centres unmarked) [Compound 583] the IC50 was 100 to 500 nM.
`Cc1cc(CN2CC[C@]3(C[C@@H]2C)OCCc2cc(CC(F)F)sc23)no1` [Compound 584] gave an IC50 of less than 100 nM.
In the case of `C[C@H]1C[C@@]2(CCN1CC1(C)COC1)OCCc1cc(CC(F)F)sc12` [Compound 585], the IC50 is reported as 100 to 500 nM.
`C[C@H]1C[C@@]2(CCN1CC1CCCO1)OCCc1cc(CC(F)F)sc12` (some centres unmarked) [Compound 586] was tested, and the IC50 was 500 to 1000 nM.
`C[C@H]1C[C@@]2(CCN1Cc1cncn1C)OCCc1cc(CC(F)F)sc12` [Compound 587] gave an IC50 of 100 to 500 nM.
Work on `C[C@H]1C[C@@]2(CCN1Cc1cc(F)c[nH]c1=O)OCCc1cc(CC(F)F)sc12` [Compound 588] yielded an IC50 of 500 to 1000 nM.
With `C[C@H]1C[C@@]2(CCN1Cc1ncccc1F)OCCc1cc(CC(F)F)sc12` [Compound 589] the IC50 was 500 to 1000 nM.
In the case of `Cc1c[nH]c(=O)c(CN2CC[C@]3(C[C@@H]2C)OCCc2cc(CC(F)F)sc23)c1` [Compound 590], the IC50 is reported as 500 to 1000 nM.
With `C[C@H]1C[C@@]2(CCN1C1CC(O)C1)OCCc1cc(CC(F)F)sc12` (some centres unmarked) [Compound 591] the IC50 was 500 to 1000 nM.
With `C[C@H]1C[C@@]2(CCN1Cc1nccn1C)OCCc1cc(CC(F)F)sc12` [Compound 592] the IC50 was 500 to 1000 nM.
`COc1ncc(CN2CC[C@]3(C[C@@H]2C)OCCc2cc(CC(F)F)sc23)c(OC)n1` [Compound 593] showed an IC50 of less than 100 nM.
For `C[C@H]1C[C@@]2(CCN1CC(O)c1ccccc1)OCCc1cc(CC(F)F)sc12` (stereo partly drawn) [Compound 594, 2-[(2′S, 7R)-2-(2,2-difluoroethyl)-2′-methyl-spiro[4,5-dihydrothieno[2,3-c]pyran-7,4′-piperidine]-1′-yl]-1-phenyl-ethanol], the IC50 was less than 100 nM.
With `C[C@H]1C[C@@]2(CCN1C1CCCC1O)OCCc1cc(CC(F)F)sc12` (some centres unmarked) [Compound 595] the IC50 was less than 100 nM.
With `C[C@H]1C[C@@]2(CCN1CC(O)C(N)=O)OCCc1cc(CC(F)F)sc12` (some centres unmarked) [Compound 596] the IC50 was less than 100 nM.
`C[C@H]1C[C@@]2(CCN1C1COCC1O)OCCc1cc(CC(F)F)sc12` (some centres unmarked) [Compound 597] showed an IC50 of less than 100 nM.
Molecule `C[C@H]1C[C@@]2(CCN1C[C@@H](O)CO)OCCc1cc(CC(F)F)sc12` [Compound 598] has an IC50 of 100 to 500 nM.
Molecule `C[C@H]1C[C@@]2(CCN1CCO)OCCc1cc(CC(F)F)sc12` [Compound 599] has an IC50 of 100 to 500 nM.
In the case of `C[C@H]1C[C@@]2(CCN1CC1(O)CCOCC1)OCCc1cc(CC(F)F)sc12` [Compound 600], the IC50 is reported as 100 to 500 nM.
With `C[C@H]1C[C@@]2(CCN1CC(O)C(F)(F)F)OCCc1cc(CC(F)F)sc12` (some centres unmarked) [Compound 601] the IC50 was less than 100 nM.
In the case of `C[C@H]1C[C@@]2(CCN1CC(O)c1ccc(F)cc1)OCCc1cc(CC(F)F)sc12` (some centres unmarked) [Compound 602], the IC50 is reported as less than 100 nM.
With `C[C@H]1C[C@@]2(CCN1CC(C)(C)O)OCCc1cc(CC(F)F)sc12` [Compound 603] the IC50 was 100 to 500 nM.
Work on `C[C@H]1C[C@@]2(CCN1C1CCCC1O)OCCc1cc(CC(F)F)sc12` (some centres unmarked) [Compound 604] yielded an IC50 of 100 to 500 nM.
`C[C@H]1C[C@@]2(CCN1CC(O)c1ccc(F)c(F)c1)OCCc1cc(CC(F)F)sc12` (some centres unmarked) [Compound 605] gave an IC50 of 100 to 500 nM.
Molecule `C[C@H]1C[C@@]2(CCN1CC1(O)CCS(=O)(=O)CC1)OCCc1cc(CC(F)F)sc12` [Compound 606] has an IC50 of 100 to 500 nM.
`C[C@H]1C[C@@]2(CCN1C[C@H](O)CO)OCCc1cc(CC(F)F)sc12` [Compound 607] showed an IC50 of 100 to 500 nM.
For `C[C@H]1C[C@@]2(CCN1C1COCC1O)OCCc1cc(CC(F)F)sc12` (some centres unmarked) [Compound 609], the IC50 was less than 100 nM.
`C[C@H]1C[C@@]2(CCN1C[C@@H](O)C(N)=O)OCCc1cc(CC(F)F)sc12` [Compound 610, (2R)-3-[(2′S, 7R)-2-(2,2-difluoroethyl)-2′-methyl-spiro[4,5-dihydrothieno[2,3-c]pyran-7,4′-piperidine]-1′-yl]-2-hydroxy-propanamide] was tested, and the IC50 was less than 100 nM.
In the case of `C[C@H]1C[C@@]2(CCN1C[C@H](O)C(N)=O)OCCc1cc(CC(F)F)sc12` [Compound 611, (2S)-3-[(2′S, 7R)-2-(2,2-difluoroethyl)-2′-methyl-spiro[4,5-dihydrothieno[2,3-c]pyran-7,4′-piperidine]-1′-yl]-2-hydroxy-propanamide], the IC50 is reported as less than 100 nM.
`CNC(=O)[C@@H](O)CN1CC[C@]2(C[C@@H]1C)OCCc1cc(CC(F)F)sc12` [Compound 612, (2S)-3-[(2′S, 7R)-2-(2,2-difluoroethyl)-2′-methyl-spiro[4,5-dihydrothieno[2,3-c]pyran-7,4′-piperidine]-1′-yl]-2-hydroxy-N-methyl-propanamide] gave an IC50 of 100 to 500 nM.
